The results in this text go back to patent US11739124B2, “Acetyl-CoA carbosylase2 antisense oligonucleotides” (OLIPASS CORPORATION, priority 2018, dated 2023).

The test system of one data set is 10-mer complementary DNA. Briefly: Binding affinity for complementary DNA by Tm (UV/Vis). Conditions: aqueous buffer pH 7.16, 10 mM sodium phosphate, 100 mM NaCl; for Tm Value, 10-mer DNA against C-Terminal: duplex of PNA and 10-mer complementary DNA targeting the C-terminal of PNA; for Tm Value, 10-mer DNA against N-Terminal: duplex of PNA and 10-mer complementary DNA targeting the N-terminal of PNA. How it is done:
The PNA derivatives of Formula I were evaluated for their binding affinity for 10-mer DNAs complementarily targeting either the N-terminal or C-terminal. The binding affinity was assessed by Tm value for the duplex between PNA and 10-mer complementary DNA. The duplex between PNA derivatives and fully complementary DNAs show Tm values too high to be reliably determined in aqueous buffer solution, since the buffer solution tends to boil during the Tm measurement. Tm values for full length PNAs can be predicted and compared based on the Tm value for the duplex between PNA and 10-mer complementary DNA.
Tm values were determined on a UV/Vis spectrometer as follows. A mixed solution of […] PNA oligomer and 4 μM complementary 10-mer DNA in 4 mL aqueous buffer (pH 7.16, 10 mM sodium phosphate, 100 mM NaCl) in 15 mL polypropylene falcon tube was incubated at 90° C. for a few minute and slowly cooled down to ambient temperature. Then the solution was transferred into a 3 mL quartz UV cuvette equipped with an air-tight cap, and the cuvette was mounted on an Agilent 8453 UV/Visible spectrophotometer. The absorbance changes at 260 nm were recorded with increasing the temperature of the cuvette by either 0.5 or 1° C. per minute. From the absorbance vs temperature curve, the temperature showing the largest increase rate in absorbance was read out as the Tm between PNA and 10-mer DNA. The DNAs for Tm measurement were purchased from Bioneer (www.bioneer.com, Dajeon, Republic of Korea) and used without further purification.

For the next data set, the system named is human ACC2 mRNA. Briefly: Inhibition of ACC2 mRNA formation in C2C12 (Real-Time qPCR). The class given is cell-based, mouse. Conditions: C2C12 cells, 24 hours; for reduction of ACC2 mRNA compared to control: standardized by GAPDH; for amount of ACC2 mRNA: 100 zM to 1 fM, concentration-dependently. How it is done: “ASO 1” was evaluated by Real-Time qPCR for its ability to down-regulate the ACC2 mRNA formation in C2C12 as described below.
[Cell Culture & ASO Treatment] C2C12 cells (Cat. No. CRL-1772, ATCC) were maintained in Dulbecco Modified Eagle Medium (DMEM, Cat. No. 12-604F, Lonza) supplemented with 10% Fetal Bovine Serum (Cat. No. 10099-41, GIBCO) and 1% streptomycin/penicillin (Cat. No. 15140-122, GIBCO), which was grown at 37° C. and under 5% CO2 condition. C2C12 cells (2×10^5) stabilized for 24 hours in 60 mm culture dish were incubated for 24 hours with “ASO 1” at 0 (negative control) and 100 zM to 1 fM.
[RNA Extraction & cDNA Synthesis] Total RNA was extracted using RNeasy Mini kit (Qiagen, Cat. No. 714106) according to the manufacturer's instructions from “ASO 1” treated cells and cDNA was prepared from 400 ng of RNA by use of PrimeScript™ 1st strand cDNA Synthesis Kit (Takara, Cat. No. 6110A). To a mixture of 400 ng of RNA, 1 microliter of random hexamer, and 1 microliter of dNTP (10 mM) in PCR tube was added DEPC-treated water to a total volume of 10 microliter, which was reacted at 65° C. for 5 minutes. cDNA was synthesized by adding 10 microliter of PrimeScript RTase to the reaction mixture and reacting at 30° C. for 10 minutes and at 42° C. for 60 minutes, successively.
[Quantitative Real-Time PCR] In order to evaluate the expression level of […] ACC2 mRNA real-time qPCR was performed with synthesized cDNA by use of Tagman probe. The mixture of cDNA, Taqman probe (Thermo, Mm01204651), IQ supermix (BioRad, Cat. No. 170-8862), and nuclease free water in PCR tube was under reaction by use of CFX96 Touch Real-Time system (BioRad) according to the cycle conditions specified as follows: at 95° C. for 3 min (primary denaturation) followed by 50 cycles of 10 sec at 95° C. (denaturation) and 30 sec at 60° C. (annealing and polymerization). Fluorescence intensity was measured at the end of every cycle and the result of PCR was evaluated by the melting curve. After the threshold cycle (Ct) of each gene was standardized by that of GAPDH, the change of Ct was compared and analyzed.
“ASO 6” was evaluated by Real-Time qPCR for its ability to down-regulate the ACC2 mRNA formation in C2C12 as described below.
[Cell Culture & ASO Treatment] C2C12 cells (Cat. No. CRL-1772, ATCC) were maintained in Dulbecco Modified Eagle Medium (DMEM, Cat. No. 12-604F, Lonza) supplemented with 10% Fetal Bovine Serum (Cat. No. 10099-41, GIBCO) and 1% streptomycin/penicillin (Cat. No. 15140-122, GIBCO), which was grown at 37° C. and under 5% CO2 condition. C2C12 cells (2×10^5) stabilized for 24 hours in 60 mm culture dish were incubated for 24 hours with “ASO 6” at 0 (negative control) and 100 zM to 1 fM.
[RNA Extraction & cDNA Synthesis] Total RNA was extracted using RNeasy Mini kit (Qiagen, Cat. No. 714106) according to the manufacturer's instructions from “ASO 6” treated cells and cDNA was prepared from 400 ng of RNA by use of PrimeScript™ 1st strand cDNA Synthesis Kit (Takara, Cat. No. 6110A). To a mixture of 400 ng of RNA, 1 microliter of random hexamer, and 1 microliter of dNTP (10 mM) in PCR tube was added DEPC-treated water to a total volume of 10 microliter, which was reacted at 65° C. for 5 minutes. cDNA was synthesized by adding 10 microliter of PrimeScript RTase to the reaction mixture and reacting at 30° C. for 10 minutes and at 42° C. for 60 minutes, successively.
“ASO 5” was evaluated by the same method as described below.
[Cell Culture & ASO Treatment] C2C12 cells (Cat. No. CRL-1772, ATCC) were maintained in Dulbecco Modified Eagle Medium (DMEM, Cat. No. 12-604F, Lonza) supplemented with 10% Fetal Bovine Serum (Cat. No. 10099-41, GIBCO) and 1% streptomycin/penicillin (Cat. No. 15140-122, GIBCO), which was grown at 37° C. and under 5% CO2 condition. C2C12 cells (2×10^5) stabilized for 24 hours in 60 mm culture dish were incubated for 24 hours with “ASO 5” at 0 (negative control) and 100 zM to 1 fM.
[RNA Extraction & cDNA Synthesis] […]
(Quantitative PCR measures a nucleic acid by following its amplification.)

Another data set deals with ACC2 exon 12. The data set is described as follows: Exon skipping of ACC2 mRNA in C2C12 (nested RT-PCR, electrophoresis, Sanger sequencing). The class given is cell-based. Conditions: C2C12 cells, 5 hours, 0.1 aM to 1 fM. As for the experimental part:
“ASO 1” was evaluated for its ability to induce the skipping of ACC2 “exon 12” in C2C12 cells as described below.
[Cell Culture & ASO Treatment] C2C12 cells (2×10^5) (Cat. No. CRL-1772, ATCC) were grown in 60 mm culture dish containing DMEM medium (Dulbecco Modified Eagle Medium: DMEM) (Cat. No. 12-604F, Lonza) supplemented with 10% FBS (Fetal Bovine Serum) (Cat. No. 10099-41, GIBCO) and 1% streptomycin/penicillin (Cat. No. 15140-122, GIBCO) under 5% CO2 atmosphere at 37° C. The cells were treated either with nothing (negative control) or with an aliquot of aqueous stock solution of “ASO 1” for 5 hours at 100 zM to 1 fM.
[RNA Extraction & Nested PCR] Total RNA was extracted using RNeasy Mini kit (Qiagen, Cat. No. 714106) according to the manufacturer's instructions from “ASO 1” treated cells and cDNA was prepared from 200 ng of RNA by use of SuperScript™ III One-Step RT-PCR System (Cat. No. 12574-018, Invitrogen). […]
[Identification of Exon Skipping Products Electrophoresis] […] The target bands from “ASO 1” treatment were collected and analyzed by Sanger Sequencing to evaluate exon skipping sequence.

As for “(N→C) Fethoc-AC(1O2)T-GA(5)C-GA(5)A-A(5)TG(5)-GC(1O2)-NH2 [ASO 4]”, in the data set on 10-mer complementary DNA, the “Tm Value, 10-mer DNA against C-Terminal” value was found to be 82.01 °C and the “Tm Value, 10-mer DNA against N-Terminal” value was 80.01 °C.
Consider “(N→C) Fethoc-CTG(6)-AC(1O2)G-A(5)AA(5)-TG(6)G-C(1O2)C—NH2 [ASO 6]”, for which the “reduction of ACC2 mRNA compared to control” value in the data set on human ACC2 mRNA (1 aM) is reported as 30%; with human ACC2 mRNA (1 fM), 50%. Moreover, the “amount of ACC2 mRNA” value in the data set with human ACC2 mRNA was “reduced”.
The like results for “(N→C) Fethoc-CTG(6)-AC(1O2)G-A(5)AA(5)-TG(6)G-NH2 [ASO 5]” were, in that order, 30%, 42% and “reduced”.
Take “(N→C) Fethoc-CTG(6)-ACG(6)-AA(5)A-TG(6)G-C(1O2)C—NH2 (CTNACNANATNGNC; PNA with modified bases, Fethoc N-cap, C-amide; PNA modified oligonucleotide; (1)..(14) PNA modified oligonucleotide, human acetyl-CoA carboxylase2 targeted artificial sequence; (1)..(1) Carbamated N-terminal; modified_base (3)..(3) n is a, g, c, or t; modified_base (6)..(6) n is a, g, c, or t; modified_base (8)..(8) n is a, g, c, or t; modified_base (11)..(11) n is a, g, c, or t; modified_base (13)..(13) n is a, g, c, or t) [ASO 1, peptide nucleic acid derivative targeting the 5′ splice site of exon 12 in the human ACC2 pre-mRNA]”: in the data set with ACC2 exon 12, the “Exon skipping (splice variant ACC2 mRNA)” value is recorded as “concentration-dependently yielded the splice variant ACC2 mRNA lacking exon 11”. Moreover, in the data set with human ACC2 mRNA (1 fM), the “reduction of ACC2 mRNA compared to control” value came to 30%. The “amount of ACC2 mRNA” value with human ACC2 mRNA is reported as “reduced”. For the same substance, in the data set with 10-mer complementary DNA, the “Tm Value, 10-mer DNA against C-Terminal” value came out at 79.60 °C and the “Tm Value, 10-mer DNA against N-Terminal” value worked out at 72.80 °C.
Regarding “(N→C) Fethoc-TA(5)C(1O2)-TGA(5)-CGA(5)-AA(5)T-G(6)GC(1O2)-C—NH2 [ASO 2]”, in the data set on 10-mer complementary DNA, the “Tm Value, 10-mer DNA against C-Terminal” value is 82.01 °C and the “Tm Value, 10-mer DNA against N-Terminal” value was 82.99 °C.
On the same counts, the results for “(N→C) Fethoc-TA(5)C-TG(5)A-C(1O2)GA(5)-AA(5)T-G(5)G-NH2 [ASO 3]” are 78.99 °C and 76.03 °C.
